Source: publication PMC4830539, “Chemical Inhibition of Histone Deacetylases 1 and 2 Induces Fetal Hemoglobin through Activation of GATA2” (PLoS ONE, 2016)
Like-named read-outs stand apart in the source and are kept apart here.

What was measured:
HBG mRNA = HBG mRNA (%) by QPCR in differentiating BM cells (CS1, CS2); assay type: cell-based, human
Description: (§1) CD34+ cells isolated from human bone marrow of healthy normal donors (Lonza, AllCells, or StemCell Technologies), referred to as BM cells throughout this work, were cultured using two distinct 2-phase culture systems. These systems have been described previously and are referred to as Culture System 1 (CS1) and Culture System 2 (CS2) throughout this work. CS1 expansion media is StemSpan SFEM (StemCell Technologies) supplemented with CC100 (StemCell Technologies), 100 U/mL penicillin and 100 μg/mL streptomycin. CC100 is a mix of Flt-3 ligand (FLT3LG), KIT ligand (KITLG), interleukin-3 (IL3), and interleukin-6 (IL6). CS1 differentiation media is StemSpan SFEM supplemented with 1 U/ml erythropoietin (EPO), 5 ng/mL IL3, 20 ng/mL KITLG, 2 μM dexamethasone, 1 μM beta-estradiol, 100 U/mL penicillin and 100 μg/mL streptomycin. CS2 expansion media is StemSpan SFEM supplemented with 1% glutamine, 40 μg/mL lipids (Sigma), 100 ng/mL KITLG, 10 ng/mL IL3, and 0.5 U/mL EPO. CS2 differentiation media is same as CS2 expansion media, except 3 U/mL EPO.
Globin mRNA was detected using quantitative real time PCR (QPCR). Total RNA was isolated using RNeasy Micro Kit (Qiagen) with on-column DNase digestion, converted into cDNA using the High Capacity RNA-to-cDNA Kit (Life Technologies), diluted 5-fold with water, and 1 μL used as a template for QPCR. The percent of each β-like globin transcript was determined using the absolute standard curve method. Briefly, DNA corresponding to the full length transcript for each globin isoform was cloned into […] plasmid (GenScript, Piscataway NJ). Each plasmid was validated against each QPCR probe to ensure specificity. Plasmids were pooled at equal molar concentration and a dilution series spanning 8-logs was utilized as the standard curve. Throughout this work, ‘HBG mRNA (%)’ and ‘percent HBG mRNA’ refers to the abundance of HBG mRNA expressed relative to the sum of the abundances of all β-like globin transcripts, i.e. [HBG/(HBB+HBD+HBG+HBE)]*100. In cases where the transcript of interest was compared against the housekeeping gene ACTB, the comparative Ct ([…]) method was utilized. Probes used for QPCR: HBB (Hs00747223_g1), HBD (Hs00426283_m1), HBG (Hs00361131_g1, detects both HBG1 and HBG2), HBE (Hs00362215_g1), GATA1 (Hs01085823_m1), GATA2 (Hs00231119_m1), KLF1 (Hs00610592_m1), MYB (Hs00920556_m1), SOX6 (Hs00264525_m1), BCL11A (Hs01093197_m1), and ACTB (Hs99999903_m1).
To evaluate the ability of ACY-957 to activate HBG, we utilized two distinct 2-phase culture systems, referred to as CS1 [24] and CS2 [21], to derive erythroid progenitors and erythroblasts from CD34+ human bone marrow cells (BM cells). […]

HbF protein = HbF protein by flow cytometry in BM cells (CS1, CS2); assay type: cell-based, human; conditions: for HbF positive cells / MFI of HbF positive cells: 1 μM ACY-957 or 30 μM hydroxyurea
Description: as §1
Flow cytometry was performed on a FC500 flow cytometer ([…]). Fetal hemoglobin protein was assayed using the Fetal Hemoglobin Test Kit (Life Technologies) according to manufacturer’s protocol. Samples were stained with FITC-conjugated mouse IgG1 anti-human HbF antibody (clone HbF-1, Life Technologies). Each sample was also stained with a FITC-conjugated mouse IgG1 isotype control antibody (clone X40, BD Biosciences) and used as a negative control. FETALtrol cells were used as positive controls (Trillium Diagnostics). TFRC and GYPA were detected on fresh cells by staining with 20 μL of PE-conjugated anti-human TFRC (clone M-A712, catalog 555537, BD Biosciences) and 0.5 μL of FITC- or APC-conjugated anti-human GYPA (clone GA-R2 (HIR2), catalog 559943 or 551336, BD Biosciences) in 200 μL PBS with 0.1% BSA for 40 min on ice. Forward and side scatter, or staining with 7AAD (catalog 559925, BD Biosciences), was used to identify viable cells.
To determine if the HBG mRNA induction observed in the presence of ACY-957 was associated with an increase in the HbF protein, CS1 and CS2 cells at day 5 were stained with a fluorescently conjugated anti-HbF antibody and evaluated by flow cytometry. HbF positive cells were increased by 2 to 3-fold upon treatment with ACY-957, which exceeded the response observed with hydroxyurea (Fig 2B and 2E).

[1] = set-up: method as in earlier work; conditions: rat; cited from earlier work
[2] = set-up: method as in earlier work; conditions: dog; cited from earlier work

## Nc1ccc(-c2cccs2)cc1NC(=O)c1ccc2nc(N3CCNCC3)ccc2c1 [ACY-957]
HBG mRNA; CS1, day 5, 1 μM
  HBG mRNA (%): 35%
HBG mRNA; CS1 and CS2, 1 μM
  each β-like globin mRNA relative to ACTB: significantly increased levels of HBE and HBG mRNA and decreased levels of HBD and HBB mRNA
HBG mRNA; CS1 and CS2, day 5, 1 μM
  increase of HBG level over vehicle treated controls: approximately 3.5 fold
HBG mRNA; CS2, day 5, 1 μM
  HBG mRNA (%): 24%
HbF protein; CS1, day 5
  HbF positive cells: 36%
  MFI of HbF positive cells: 36
HbF protein; CS1 and CS2, day 5, 1 μM
  increase of HbF positive cells: 2 to 3 fold
  increase of mean fluorescent intensity (MFI) of HbF positive cells: up to 2 fold
HbF protein; CS2, day 5
  HbF positive cells: 50%
  MFI of HbF positive cells: 20
[1]
  pharmacokinetic properties: favorable
[2]
  pharmacokinetic properties: favorable
